According to patent US11311514B2, “Pharmaceutical composition for preventing or treating pruritus, containing pyrazole derivative as active ingredient, and screening method for detecting same” (Seoul National University R&DB Foundation, priority 2017, dated 2022):

Experiments:
dry skin mouse model = experiment: Pruritus evaluation in dry skin mouse model; format: in vivo, C57BL6 mice; settings: 30 mg/kg intraperitoneal on Day 5 of acetone/ether/water treatment; recorded 30 min later; control group 130.00
Method: First, a dry skin mouse model was constructed. A dry skin mouse model was prepared according to the instruction described Jpn J Pharmacol. 2002 March; 88(3):285-92. ENTOBAR® was mixed with physiological saline (0.9% saline) at the ratio of 1:1, which was intraperitoneally injected in 7-week-old C57BL6 mice (20 ? /mouse) to anesthetize the mice. Then, the hair of the right nape was shaved using a clipper. Ethyl ether and acetone were mixed at the ratio of 1:1. The mixture was soaked in absorbent cotton and the right nape was rubbed with the absorbent cotton for 1 minute. Then, absorbent cotton soaked with water was used to rub in the same way. This process was performed once in the morning and once in the afternoon for 5 days.
(§1) Next, pruritus evaluation in the dry skin mouse model was performed. In the afternoon on Day 5, the control group mice were intraperitoneally injected with 3% DMSO dissolved in physiological saline (0.9% saline) (50 ? /mouse). […] 30 minutes later, their behaviors were recorded with a digital camera for 30 minutes. The number of scratches was recorded while playing back the recorded video file on a computer. A continuous action of scratching the skin from when the mouse lifted its hind foot off the floor and to when the mouse put it back on the floor was considered 1 scratch, and the number of scratches counted for 30 minutes was used as index for evaluating pruritus.

[1] = Solubility in blood (selection of final compound); format: physicochemical; settings: result in words; no method given
histamine mouse model = experiment: Pruritus evaluation in histamine mouse model; format: in vivo, C57BL6 mice; settings: 30 mg/kg intraperitoneal, 30 min before histamine 500 μg s.c. dorsal; control group 118.38
Method: (§2) Seven week-old C57BL6 mice were placed in a new cage and adapted for 30 minutes before starting the experiment. As for the control group, 3% DMSO was dissolved in physiological saline (0.9% saline), which was intraperitoneally injected (50 ? /mouse). The animal model mice were intraperitoneally injected with the pharmaceutical composition of Example 1 (30 mg/kg) dissolved in physiological saline (0.9% saline) containing 3% DMSO (50 ? /mouse). The mice were also ? placed in the same cage above for 30 minutes.
(§3) Then, control and animal model mice were subcutaneously injected with 500 μg/50 ? of histamine on the dorsal side, and their behaviors were recorded with a digital video camera for 30 minutes. The number of scratches was recorded while playing back the recorded video file on a computer. A continuous action of scratching the skin from when the mouse lifted its hind foot off the floor and to when the mouse put it back on the floor was considered 1 scratch, and the number of scratches counted for 30 minutes was used as index for evaluating pruritus.

mouse motor ability = experiment: Rota rod motor condition test; format: in vivo; settings: 30 mg/kg intraperitoneal, tested after 30 minutes; Rota rod speed 4 to 40
Method: The test mouse was placed on the Rota rod device and then the speed was raised from 4 to 40 until the mouse fell. When the mouse fell, it was moved to a cage. The procedure was repeated three times a day for 3 consecutive days to adapt the mouse to the Rota rod device. After three days of adaptation, the mouse was moved to a cage where it was stabilized.
As for the control group, 3% DMSO was dissolved in physiological saline (0.9% saline), which was intraperitoneally injected (50 ? /mouse). The animal model mice were intraperitoneally injected with the pharmaceutical composition of Example 1 (30 mg/kg) dissolved in physiological saline (0.9% saline) containing 3% DMSO (50 ? /mouse). The mice were also placed in the same cage above for 30 minutes. The experiment above was repeated three times like the adaptation test above, and the average time of falling was calculated.

[2] = system: psoriatic mouse model (Aldara cream, 5% imiquimod); experiment: Pruritus evaluation in psoriatic mouse model; format: in vivo, C57BL6 mice; settings: 30 mg/kg intraperitoneal on day 8 after 7 days Aldara cream; counted for 30 minutes; normal group 20.00, control group 71.00
Method: First, a psoriatic mouse model was constructed. A psoriatic mouse model was prepared according to the instruction described Pain. 2016 November; 2536-2543. Zoletil (15 mg/kg) was mixed with saline at the ratio of 1:1 and then mixed with Rompun (5 mg/kg), which was intraperitoneally injected in 7-week-old C57BL6 mice to anesthetize the mice. The mouse back was primarily depilated in the size of 2.5×2 cm using a clipper, and then secondly depilated using a straight blade. Vaseline cream was rubbed on the depilated area of the normal group for 7 days using a cotton swap. Aldara cream (62.5 mg, 5% imiquimod) was rubbed on the depilated area of the control group and the experimental group for 7 days using a cotton swap.
as §1, with “psoriatic” for “dry skin”, “On day 8,” for “In”, “normal group and” for “afternoon on Day 5, the”

chloroquine mouse model = experiment: Pruritus evaluation in chloroquine mouse model; format: in vivo, C57BL6 mice; settings: 30 mg/kg intraperitoneal, 30 min before chloroquine 200 μg s.c. dorsal; control group 425.00
Method: as §2
as §3, with “200” for “500”, “chloroquine” for “histamine”

MRGPR X1 = biological target: T1, MRGPR X1 (Homo sapiens, UniProt Q96LB2); experiment: MRGPR X1 screening assay (calcium dye fluorescence, chloroquine-stimulated); format: cell-based; settings: Mrgpr X1 stable HEK 293T FRT cells; final 12 μM compound, 500 μM chloroquine, 0.2% DMSO
T1 construct: expressed in transfected cells
T1 sequence (Q96LB2 whole entry): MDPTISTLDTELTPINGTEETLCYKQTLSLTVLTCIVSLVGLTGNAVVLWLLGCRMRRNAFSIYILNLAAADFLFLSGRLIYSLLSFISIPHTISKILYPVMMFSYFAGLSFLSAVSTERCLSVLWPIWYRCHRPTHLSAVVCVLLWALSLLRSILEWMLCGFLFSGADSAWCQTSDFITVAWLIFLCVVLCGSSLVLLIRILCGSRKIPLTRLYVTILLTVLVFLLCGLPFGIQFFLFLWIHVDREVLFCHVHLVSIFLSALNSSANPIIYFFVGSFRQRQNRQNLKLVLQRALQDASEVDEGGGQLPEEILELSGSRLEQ
Method: Human MRGPRX1 gene was sub-cloned in pcDNA5 FRT vector, which was transfected into HEK 293T FRT cells. The cells were cultured in a 37° C., 5% CO2 incubator for 48 hours.
To confirm the amount with which a single colony is well formed, the transfected cells were serially diluted and then transferred and distributed on 100 mm dish evenly. The medium was replaced with a fresh medium containing 50/g/ ? of hygromycin every 3-4 days. The cells were cultured until colonies were formed.
Once colonies were formed, only a single colony was transferred to a 24 well plate, followed by culture. Then, well grown cells were transferred to a 6 well plate, followed by culture. Antibiotic selection was performed. […]
First, MRGPR X1 stable cells were counted to make 8000 cells/well, followed by seeding in a Poly-D-Lysine coated plate 384 well black/clear plate. […]
Upon completion of the incubation, dye was discarded and Na-HEPES buffer was added thereto (25 ? /well) for washing, and then buffer was added thereto (25 ? /well) again. 25 ? of the primary candidate material was added to each well of the assay plate containing 25 ? of buffer, followed by reading the plate (final 12 μM compound, 500 μM chloroquine, 0.2% DMSO). […]
The experimental results were analyzed using a microplate reader (Flexstaion Π^384, Molecular Devices). […]

[3] = biological target: T2, human histamine 1 receptor (hH1R) (Homo sapiens, UniProt P35367); experiment: Human histamine 1 receptor antagonist assay (calcium dye fluorescence, histamine-stimulated); format: cell-based; settings: HEK 293T cells transiently expressing hH1R; final 12 μM compound, 1 μM histamine, 0.2% DMSO; control 5 μM diphenhydramine; read-out: reduction of fluorescence, taking the inhibition by histamine plus diphenhydramine as 100%
T2 construct: expressed in transfected cells; host or cells: HEK 293T cells, transient transfection
T2 sequence (P35367 whole entry): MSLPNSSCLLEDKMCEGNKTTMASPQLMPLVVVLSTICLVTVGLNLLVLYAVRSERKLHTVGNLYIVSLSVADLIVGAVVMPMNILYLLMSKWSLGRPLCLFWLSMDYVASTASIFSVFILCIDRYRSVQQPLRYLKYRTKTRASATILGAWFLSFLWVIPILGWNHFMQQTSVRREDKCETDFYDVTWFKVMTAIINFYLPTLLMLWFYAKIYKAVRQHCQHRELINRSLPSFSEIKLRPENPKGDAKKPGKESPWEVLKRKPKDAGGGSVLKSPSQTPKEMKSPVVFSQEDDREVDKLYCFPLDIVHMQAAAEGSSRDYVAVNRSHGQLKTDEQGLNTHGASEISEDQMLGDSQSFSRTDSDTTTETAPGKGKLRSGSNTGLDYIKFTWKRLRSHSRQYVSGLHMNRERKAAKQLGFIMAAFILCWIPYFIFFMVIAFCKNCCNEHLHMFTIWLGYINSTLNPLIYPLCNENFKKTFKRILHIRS
Method: HEK 293T cells were transiently transfected with 2 μg of human histamine 1 receptor, followed by seeding at the density of 4000 cells/well. The cells were cultured in a 37° C., 5% CO2 incubator for 48 hours.
The subsequent procedure was performed using Biomex FX. After eliminating the medium, flo-3 AM dye dissolved in Na-HEPES buffer (5 mM KCl, 2 mM MgCl2, 140 mM NaCl, 10 mM NaOH-HEPES, pH7.2) at the concentration of 2.5 μM was added to the plate (25 ? /well) of the vehicle and experimental groups, and flo-3 AM dye dissolved in Na-HEPES buffer containing 5 uM diphenhydramine dissolved therein at the concentration of 2.5 μM was added to the plate (25 ? /well) of the control group, followed by culture in a 37° C., 5% CO2 incubator for 30 minutes.
During the culture, a compound plate was prepared. […]
Upon completion of the incubation, dye was discarded and Na-HEPES buffer was added thereto (25 ? /well) for washing, and then buffer was added thereto (25 ? /well) again (excluding control group wells). […] Finally, 25 ? of the compound was added to each well of the assay plate containing 25 ? of buffer, followed by reading the plate (final 12 μM compound, 1 μM histamine, 0.2% DMSO).
The experimental results were analyzed using a microplate reader (Flexstaion Π^384, Molecular Devices). Fluorescence assay was performed (Ex 488 nm, Em 535 nm) at the intervals of 3.2 seconds for 80 seconds. […]

solubility in blood [1]: excellent solubility in blood
decline of fluorescence analysis result versus chloroquine alone (MRGPR X1): approximately 54%
inhibition at 12 µM [3]: ~94%
Compound: Cc1ccc(-n2nc(C)cc2C(=O)NCCCC(=O)O)cc1 [Example 1]
average number of total scratches accumulated for 30 minutes (dry skin mouse model): 14.00 times
average number of total scratches accumulated for 30 minutes (histamine mouse model): 39.90 times
motor condition ability (average time of falling) versus control group (mouse motor ability): no significant difference
average number of total scratches [2]: 1.00
average number of total scratches accumulated for 30 minutes (chloroquine mouse model): 150.50 times
